The NIST ThermoML archive (doi:10.1021/je400539h)
“And” between values parts separate entries of the source, which are not always exact repeats. Equal values may be shown once. Numbers after ± are expanded uncertainties.

What was measured:
[1] = 101 kPa, Liquid
[2] = xn = mol fraction of the nth substance listed; conditions: 101 kPa, Liquid

C1COCCO1 [1,4-dioxane]
[1]
Conditions | mass density [kg/m3] | speed of sound [m/s] | viscosity [mPa·s]
298.15 K | 1028.2 ± 1 | 1328 ± 11 | 1.159 ± 0.028
303.15 K | 1022.7 ± 1 | 1320 ± 11 | 1.087 ± 0.027
308.15 K | 1017.4 ± 1 | 1312 ± 11 | 1.013 ± 0.025
313.15 K | 1011.1 ± 1 | 1304 ± 11 | 0.934 ± 0.023

C=COCCCC [1-(ethenyloxy)butane]
[1]
Conditions | mass density [kg/m3] | speed of sound [m/s] | viscosity [mPa·s]
298.15 K | 780.2 ± 1.9 | 1096 ± 10 | 0.4 ± 0.015
303.15 K | 774.1 ± 1.9 | 1084 ± 10 | 0.387 ± 0.014
308.15 K | 768.2 ± 2 | 1072 ± 10 | 0.365 ± 0.014
313.15 K | 763.3 ± 2 | 1060 ± 10 | 0.354 ± 0.014

CCCCCCOC(C)=O [hexyl ethanoate]
[1]
Conditions | mass density [kg/m3] | speed of sound [m/s] | viscosity
298.15 K | 868.3 ± 1.5 | 1236 ± 11 | 1.071 ± 0.026 mPa·s
303.15 K | 863.9 ± 1.5 | 1216 ± 11 | 0.982 ± 0.024 mPa·s
308.15 K | 859.8 ± 1.5 | 1196 ± 11 | 0.898 ± 0.023 mPa·s and 0.899 ± 0.023 mPa·s
313.15 K | 855 ± 1.5 | 1176 ± 10 | 0.836 ± 0.022 mPa·s

C1CCOC1 [tetrahydrofuran]
[1]
Conditions | mass density [kg/m3] | speed of sound [m/s] | viscosity [mPa·s]
298.15 K | 881.5 ± 1.4 | 1268 ± 11 | 0.45 ± 0.015
303.15 K | 878.7 ± 1.4 | 1248 ± 11 | 0.439 ± 0.015
308.15 K | 873 ± 1.4 | 1228 ± 11 | 0.429 ± 0.015
313.15 K | 866.9 ± 1.5 | 1212 ± 11 | 0.404 ± 0.015

CCCCCCOC(C)=O [hexyl ethanoate] + C1CCOC1
[2]
Conditions | mass density [kg/m3] | speed of sound [m/s] | viscosity [mPa·s]
298.15 K, x1 = 0.0514 | 882.2 ± 1.4 | 1260 ± 11 | 0.485 ± 0.016
298.15 K, x1 = 0.1091 | 882.2 ± 1.4 | 1256 ± 11 | 0.526 ± 0.017
298.15 K, x1 = 0.1735 | 882.1 ± 1.4 | 1248 ± 11 | 0.57 ± 0.017
298.15 K, x1 = 0.2467 | 881.7 ± 1.4 | 1240 ± 11 | 0.616 ± 0.018
298.15 K, x1 = 0.3289 | 880.9 ± 1.4 | 1236 ± 11 | 0.669 ± 0.019
298.15 K, x1 = 0.4241 | 879.6 ± 1.4 | 1232 ± 11 | 0.73 ± 0.02
298.15 K, x1 = 0.5384 | 877.8 ± 1.4 | 1232 ± 11 | 0.79 ± 0.021
298.15 K, x1 = 0.6648 | 875.5 ± 1.4 | 1232 ± 11 | 0.875 ± 0.022
298.15 K, x1 = 0.8185 | 872.4 ± 1.4 | 1232 ± 11 | 0.967 ± 0.024
298.15 K, x1 = 1 | 868.3 ± 1.5 | 1236 ± 11 | 1.071 ± 0.026
303.15 K, x1 = 0.0514 | 878.8 ± 1.4 | 1236 ± 11 | 0.471 ± 0.016
303.15 K, x1 = 0.1091 | 878.6 ± 1.4 | 1232 ± 11 | 0.504 ± 0.016
303.15 K, x1 = 0.1735 | 878.3 ± 1.4 | 1224 ± 11 | 0.543 ± 0.017
303.15 K, x1 = 0.2467 | 877.6 ± 1.4 | 1212 ± 11 | 0.584 ± 0.018
303.15 K, x1 = 0.3289 | 876.6 ± 1.4 | 1208 ± 11 | 0.632 ± 0.018
303.15 K, x1 = 0.4241 | 875.2 ± 1.4 | 1204 ± 11 | 0.683 ± 0.019
303.15 K, x1 = 0.5384 | 873.3 ± 1.4 | 1204 ± 11 | 0.745 ± 0.02
303.15 K, x1 = 0.6648 | 870.9 ± 1.4 | 1204 ± 11 | 0.812 ± 0.021
303.15 K, x1 = 0.8185 | 867.7 ± 1.5 | 1204 ± 11 | 0.892 ± 0.023
303.15 K, x1 = 1 | 863.9 ± 1.5 | 1216 ± 11 | 0.982 ± 0.024
308.15 K, x1 = 0.0514 | 872.9 ± 1.4 | 1216 ± 11 | 0.456 ± 0.016
308.15 K, x1 = 0.1091 | 872.7 ± 1.4 | 1208 ± 11 | 0.484 ± 0.016
308.15 K, x1 = 0.1735 | 872.4 ± 1.4 | 1200 ± 11 | 0.518 ± 0.016
308.15 K, x1 = 0.2467 | 871.9 ± 1.4 | 1188 ± 10 | 0.554 ± 0.017
308.15 K, x1 = 0.3289 | 871.2 ± 1.4 | 1184 ± 10 | 0.595 ± 0.018
308.15 K, x1 = 0.4241 | 870 ± 1.4 | 1180 ± 10 | 0.641 ± 0.018
308.15 K, x1 = 0.5384 | 868.2 ± 1.5 | 1180 ± 10 | 0.692 ± 0.019
308.15 K, x1 = 0.6648 | 866 ± 1.5 | 1180 ± 10 | 0.751 ± 0.02
308.15 K, x1 = 0.8185 | 863 ± 1.5 | 1180 ± 10 | 0.819 ± 0.022
308.15 K, x1 = 1 | 859.8 ± 1.5 | 1196 ± 11 | 0.898 ± 0.023
313.15 K, x1 = 0.0514 | 866.7 ± 1.5 | 1200 ± 11 | 0.416 ± 0.015
313.15 K, x1 = 0.1091 | 866.5 ± 1.5 | 1188 ± 10 | 0.444 ± 0.015
313.15 K, x1 = 0.1735 | 866.2 ± 1.5 | 1176 ± 10 | 0.475 ± 0.016
313.15 K, x1 = 0.2467 | 865.8 ± 1.5 | 1168 ± 10 | 0.508 ± 0.016
313.15 K, x1 = 0.3289 | 865.2 ± 1.5 | 1164 ± 10 | 0.547 ± 0.017
313.15 K, x1 = 0.4241 | 864.2 ± 1.5 | 1156 ± 10 | 0.591 ± 0.018
313.15 K, x1 = 0.5384 | 862.6 ± 1.5 | 1152 ± 10 | 0.639 ± 0.018
313.15 K, x1 = 0.6648 | 860.5 ± 1.5 | 1152 ± 10 | 0.695 ± 0.019
313.15 K, x1 = 0.8185 | 857.8 ± 1.5 | 1152 ± 10 | 0.761 ± 0.02
313.15 K, x1 = 1 | 855 ± 1.5 | 1176 ± 10 | 0.836 ± 0.022

COc1ccccc1 [anisole]
[1]
Conditions | mass density [kg/m3] | speed of sound [m/s] | viscosity [mPa·s]
298.15 K | 993.6 ± 1 | 1396 ± 12 | 0.97 ± 0.024
303.15 K | 989.4 ± 1 | 1380 ± 12 | 0.917 ± 0.023
308.15 K | 984.6 ± 1 | 1364 ± 12 | 0.863 ± 0.022
313.15 K | 980 ± 1 | 1348 ± 11 | 0.803 ± 0.021
